Source: patent US20240366571A1, “MODULATORS OF SK4 POTASSIUM CHANNEL AND USES THEREOF” (Ramot at Tel-Aviv University Ltd., priority 2022, published 2024)

Tests used:
Experiment in all cases: Whole-cell patch-clamp of SK4 channel mutants
[1] = target: T1, SK4 channel mutants (Homo sapiens, UniProt O15554, E22A); format: cell-based; settings: read-out: inhibition of SK4 mutant E22A current
T1 construct: expressed in transfected cells; host or cells: CHO cells
Experimental: (§1) Constructs: For CHO cell transfection, the following were cloned: human SK1, rat SK2, human SK3, and rat calmodulin into the pcDNA3 vector, human SK4 into pEGFP-C1 vector, and PIP4,5-kinase into an IRES-dsRed plasmid. The mutations were introduced using the PCR-based QuikChange™ site-directed mutagenesis (Stratagene®) and were verified by full sequencing of the entire plasmid vector.
(§2) Whole-cell patch-clamp recording: Voltage-clamp recordings were performed using the whole-cell configuration of the patch-clamp technique. Signals were amplified using an […] patch-clamp amplifier (Molecular Devices), sampled at 5 kHz and filtered at 2.4 kHz via a four pole Bessel low pass filter. Data were acquired using pClamp™ 10.5 software in conjunction with an Axon™ DigiData® 1440A interface (Molecular Devices). The patch pipettes were pulled from borosilicate glass (Harvard Apparatus) with a resistance of 3-5 megaohms (MΩ). The intracellular pipette solution contained 130 mM KCl, 5 mM EGTA, 10 mM HEPES, pH 7.3 (adjusted with KOH), and CaCl2 calculated for a final concentration of 1 μM free-Ca^2+, by MAXCHELATOR (WEBMAXC STANDARD) software, with sucrose added to adjust osmolarity to 290 mosM. The external solution (310 mosM) contained 140 mM NaCl, 4 mM KCl, 1.8 mM CaCl2, 1.2 mM MgCl2, 11 mM glucose, and 5.5 mM HEPES adjusted with NaOH to pH 7.3. CHO cells were held at −90 millivolt (mV) and SK4 K^+ currents were activated using a voltage ramp protocol from −100 mV to +60 mV for 150 milliseconds. Electrophysiological data analysis was performed using the Clampfit program (pClamp™ 10.5; Molecular Devices).
(§3) To examine ex-vivo the interactions between BA6b9 and the simulated residues seen in FIG. 5B, residues that are in atomic proximity and are expected to interact with BA6b9 were mutated. Such mutated residues were, for example, R191 and H192 of linker S4-S5, M72 and M76 of the CaM linker as well as L19, E22, Y179, S181, A184, Q187 and R189, which are more distant from BA6b9.

[2] = target: T2, SK4 channel mutants (Homo sapiens, UniProt O15554, H192A); format: cell-based; settings: read-out: inhibition of SK4 mutant H192A current
T2 construct: expressed in transfected cells; host or cells: CHO cells
Experimental: as §1, §2, §3

[3] = target: T3, SK4 channel mutants (Homo sapiens, UniProt O15554, L19W); format: cell-based; settings: read-out: inhibition of SK4 mutant L19W current
T3 construct: expressed in transfected cells; host or cells: CHO cells
Experimental: as §1, §2, §3

[4] = target: T4, SK4 channel mutants (Homo sapiens, UniProt O15554, R191A); format: cell-based; settings: read-out: inhibition of SK4 mutant R191A current
T4 construct: expressed in transfected cells; host or cells: CHO cells
Experimental: as §1, §2, §3

[5] = target: T5, SK4 channel mutants (Homo sapiens, UniProt O15554, R352Q); format: cell-based; settings: read-out: inhibition of SK4 mutant R352Q current
T5 construct: expressed in transfected cells; host or cells: CHO cells
Experimental: as §1, §2, §3

[6] = tested on: SK4 channel mutants; format: cell-based, human; settings: 20 μM
Experimental: as §1, §2, §3

CCCCCCCn1c(=O)oc2ccccc21 [BA6b9, 3-heptylbenzo[d]oxazol-2(3H)-one] gave an inhibition at 20 µM [1] of 56%, an inhibition at 20 µM [2] of 16% and an inhibition at 20 µM [3] of 46%. The inhibition at 20 µM [4] was 30%, the inhibition at 20 µM [5] was 31% and the “sensitivity of mutants R352Q, R191A, H192A to inhibition compared to WT SK4” value [6] was “significantly less sensitive”.
